The record followed here is PubChem BioAssay (NCI).

What all share (assay): inhibition of tumour cell growth, NCI panel, 48 h
In experiment [1] the test system is 786-0 renal.
Experiment [2] deals with CCRF-CEM leukemia.
For experiment [3], the system named is HCT-116 colon.
Experiment [4] has as its system HOP-92 NSCLC.
The subject of experiment [5] is KM12 colon.
In experiment [6] the test system is LOX IMVI melanoma.
Experiment [7] has as its system MOLT-4 leukemia.
The subject of experiment [8] is OVCAR-5 ovarian.
For experiment [9], the system named is RXF 393 renal.

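Cultured in 96-well plates, cells were exposed to test compound for 48 hours across five concentrations. GI50 = concentration required for 50% inhibition of growth. TGI: concentration producing complete growth inhibition.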

For `O=c1c2c(-c3ccccc3)c3ccccc3nc2cnn1-c1ccccc1`, the TGI in experiment [1], in experiment [2], in [3], in experiment [4], in experiment [5] and in experiment [6] was > 100 µM throughout. Moreover, the TGI in [7], in [8] and in [9] was > 100 µM throughout.

`Clc1ccccc1CN1COc2c(ccc3cccnc23)C1`: the TGI in experiment [1] is 14.8 µM; in experiment [2], 1.74 µM; in [3], 9.66 µM; in experiment [4] it was 7.6 µM; in experiment [5], 18.1 µM; in [6] it was 22.5 µM. In addition, the TGI in experiment [7] was determined as 6.77 µM; in experiment [8], 22.8 µM.

For the compound `Cc1cc(NCc2cc(Nc3ccnc4cc(Cl)ccc34)ccc2F)nc(N2CCOCC2)n1`, the GI50 in [1] was 1.66 µM; in experiment [2], 2.53 µM; in experiment [4] it was 1.34 µM; in experiment [5] it was 2.01 µM; in experiment [7], 2.95 µM; in experiment [8], 2.45 µM. Also, the TGI in experiment [1] was 3.12 µM; in [2], 34.6 µM; in experiment [4], 3.13 µM; in experiment [5] it was 4.59 µM; in [7] it was > 100 µM; in experiment [8], 6.97 µM.

On to `N=c1c2ccccc2sc2nc3ccccc3n12`, for which the TGI in experiment [1], in [2], in experiment [4], in [5], in experiment [6] and in experiment [7] was > 100 µM in each case. The TGI in experiment [8] and in experiment [9] was > 100 µM throughout.

As to `COC/N=C(\NC#N)NCOC`, the TGI in [1] is > 74.6 µM; in experiment [2], > 100 µM; in experiment [3], > 100 µM; in experiment [4], > 100 µM; in experiment [5] it was > 100 µM; in experiment [6], > 95.8 µM. The TGI in experiment [7] was > 100 µM; in experiment [8] it was > 100 µM; in [9] it was > 63.3 µM.

Consider `COc1ccc(O)c(C(=O)CCC(=O)O)c1`, for which the TGI in experiment [1], in experiment [2], in experiment [4], in [5], in experiment [6] and in experiment [7] was > 100 µM in each case. In addition, the TGI in [8] and in [9] was > 100 µM each time.

Regarding `C1=Cc2nc1c(-c1ccccc1)c1ccc([nH]1)c(-c1ccccc1)c1nc(c(-c3ccccc3)c3ccc([nH]3)c2-c2ccccc2)C=C1`, the TGI in experiment [1], in experiment [2], in [3], in experiment [4], in [5] and in [6] was > 100 µM each time. Besides, the TGI in experiment [7] and in experiment [8] was > 100 µM in each case.

With `COC(=O)c1cc(=O)nc2cc3cccccc3n12`, the TGI in experiment [1], in [2], in [3], in experiment [5], in experiment [6] and in experiment [7] was > 100 µM in each case. For the same compound, the TGI in experiment [8] and in [9] was > 100 µM throughout.

Consider `CN(C)N1C(=O)SCC(c2ccccc2)(c2ccccc2)C1=O`, for which the TGI in experiment [1], in experiment [2], in [3], in [4], in experiment [5] and in experiment [6] was > 100 µM throughout. In addition, the TGI in experiment [7], in experiment [8] and in [9] was > 100 µM each time.

`CCOc1ccc(N=C(NC(=O)c2ccccc2)SC)cc1`: the TGI in experiment [1], in experiment [2], in experiment [3], in experiment [4], in experiment [6] and in experiment [7] was > 100 µM throughout. The TGI in experiment [8] and in experiment [9] was > 100 µM each time.

Consider `CC1CC2(S(=O)(=O)c3ccccc3)ON1CC2S(=O)(=O)c1ccccc1` (configuration not stated), for which the TGI in [1], in experiment [2], in [3], in [5], in experiment [6] and in [7] was > 100 µM each time. Besides, the TGI in experiment [8] and in experiment [9] was > 100 µM each time.

Turning to `COc1ccccc1-c1cc(=O)c2cc(C)c(C)c(C(=O)O)c2o1`, the TGI in [1], in experiment [2], in experiment [3], in [4], in experiment [5] and in experiment [6] was > 100 µM throughout. The TGI in [7] and in experiment [8] was > 100 µM throughout.

Regarding `COc1ccc(/C=C2\CCC(CCN(C)C)(C3=CCCC3)C2=O)cc1` (configuration not stated), the TGI in experiment [1] was 28.7 µM; in [2], 53 µM; in experiment [3], 29.1 µM; in experiment [4] it was 54.1 µM; in [5], 32.4 µM; in experiment [6], 30.8 µM. The figures for the TGI in experiment [7], in experiment [8] and in experiment [9] were 51 µM, 47.6 µM and 22.7 µM, respectively.

With `CCOc1cccc2c1N[S@@](=O)S2`, the TGI in [1], in [2], in experiment [3], in [4], in experiment [5] and in experiment [6] was > 100 µM each time. The TGI in experiment [7] is > 100 µM.

With `OC1=CN=COc2ccccc21`, the TGI in experiment [1], in [2], in [3], in experiment [4], in experiment [5] and in experiment [6] was > 100 µM each time. Moreover, the TGI in experiment [7] and in experiment [9] was > 100 µM in each case.

As for `CCCCCCC(O)CC[C@H]1CCC[C@@H](C)N1` (some centres not stated), the TGI in [1] was < 10 µM; in experiment [2], > 100 µM; in [3], > 100 µM; in experiment [4] it was > 100 µM; in experiment [5], < 10 µM; in experiment [6], > 100 µM. Besides, the TGI in experiment [7] is > 100 µM; in [8], < 10 µM; in [9], > 100 µM.

With `CCC1=CCN(c2cc(C)ccn2)OC1c1ccccc1` (configuration not stated), the TGI in [1], in experiment [2], in experiment [3], in experiment [5], in experiment [6] and in experiment [7] was > 100 µM throughout. In addition, the TGI in [8] is > 100 µM; in [9], 68 µM.

In the case of `COC(=O)C(C(=O)C(=O)Nc1ccc(C)cc1C)c1csc(-n2nc(-c3ccccc3)cc2-c2ccccc2)n1` (configuration not stated), the TGI in [1], in [2], in [3], in experiment [4], in experiment [5] and in [6] was > 100 µM throughout. In addition, the TGI in [7], in experiment [8] and in experiment [9] was > 100 µM each time.

As for `CC1(C)COC2C(N(Cc3ccccc3)Cc3ccccc3)C(=O)N21` (configuration not stated), the TGI is > 100 µM in experiment [1]; > 100 µM in [2]; > 100 µM in [3]; 80.5 µM in experiment [4]; > 100 µM in experiment [5]; > 100 µM in [6]. The TGI in [7] is > 100 µM; in experiment [8], > 100 µM; in experiment [9] it was 42.5 µM.

Regarding `CC1=Nc2ccccc2SC(c2c(Cl)cccc2Cl)C1` (configuration not stated), the TGI in experiment [1] was 1.49 µM; in experiment [2], 2.26 µM; in experiment [3], 0.616 µM; in [4], 3.62 µM; in experiment [5], 2.15 µM; in experiment [6], 1.04 µM. For the same compound, the TGI in experiment [7] turned out to be 12.4 µM; in [8], 4.08 µM; in experiment [9], 2.69 µM.

With `CN/N=C(/c1nc2ccc([N+](=O)[O-])cc2[nH]c1=O)C(O)c1ccc(C(O)/C(=N\NC)c2nc3ccc([N+](=O)[O-])cc3[nH]c2=O)cc1` (configuration not stated), the TGI in [1], in experiment [2], in experiment [3], in experiment [4], in experiment [5] and in experiment [6] was > 100 µM in each case. Besides, the TGI in experiment [7], in experiment [8] and in experiment [9] was > 100 µM throughout.

For `O=C1CCC2(c3ccccc3)Nc3ccccc3N12` (configuration not stated), the TGI in experiment [1], in [2], in experiment [4], in [5], in [6] and in experiment [7] was > 100 µM each time. Further, the TGI in experiment [8] and in [9] was > 100 µM each time.

`O=C1c2ccccc2C(=O)C12CCc1ccccc12`: the TGI in experiment [1], in experiment [2], in experiment [4], in [6], in experiment [7] and in experiment [9] was > 100 µM throughout.

`CN(C)C(=S)/N=c1\ssc(=S)n1C`: the TGI in experiment [1], in experiment [2], in [3], in experiment [4], in [5] and in [7] was > 100 µM each time. The TGI in experiment [8] and in experiment [9] was > 100 µM each time.
